The values that follow come from patent US6642257B2, “Agents for treating neuropathic pain” (Mochida Pharmaceutical Co., Ltd., priority 1999, dated 2003).

Data set [1] has as its target batrachotoxin receptors in the synaptosome from the rat brain (sodium channel). The experiment in a line: Inhibition of the binding of batrachotoxin to receptors in rat brain synaptosome. The conditions noted are these: 1.5 nM tritiated batrachotoxin A20-alfa-benzoate, 100 μM veratridine, 37° C., 30 minutes.
Data set [2] relates to isolated myocardial cells. The experiment in a line: Inhibition of veratrine-induced contracture of isolated myocardial cells. The format is cell-based. The conditions noted are these: Rattus norvegicus; veratrine 100 μg/mL, test compound 30 minutes before. How it is done: Specifically, the heart removed from the rat according to the Langendorff's method was treated with an enzyme, and isolated myocardial cells were obtained. The myocardial cells were inoculated on a 48 multi-well plate (3548 Coster) previously coated with poly-L-lysine at a rate of 1×10^4 cells/well. The plate was kept at 37° C. for 1 hour while being exposed to a flow of gas comprising 95% O2 and 5% CO2, to allow the cells to adhere to the bottom of each well. Then, the test compound was added to each well, and allowed to be there for 30 minutes, and […] to each well to 100 μg/mL. Five minutes later, the cells of each well was checked for their morphological changes, and the changes were photographed. If the cells' shape changed from a rod-like one into a ball-like one in the presence of veratrine, the cells were regarded as falling to contracture as a result of the exposure to veratrine. The inhibitory effect of the test compound on the contracture was determined by the probit method, and was expressed in terms of IC50. Veratrine is a mixture of […] alkaloids. If veratrine is applied to isolated myocardial cells, the cells which take a rod-like shape in a normal state will fall to contracture, taking a ball-like shape. Veratrine, when applied to isolated myocardial cells, is thought to cause a persistent sodium current in the cells, by suppressing the inactivation of the sodium channel in the cells, which leads to the contracture of the cells (Donck et al., ibid).

Data set [3] relates to formalin-induced nociceptive response. Put plainly: Formalin-induced nociceptive response in rats. The format is in vivo, rat. The conditions noted are these: for inhibition in vivo at 10 mg/kg: Rattus norvegicus, po, 10 mg/kg orally 30 minutes before formalin. Here is the method: Specifically, 25 μL of 0.5% formalin solution was subcutaneously injected into the left foot pad of the rat, and then each behavior of the rat consisting of the licking or biting of the pad immediately following the injection was checked with a stopwatch for its duration, and its cumulative duration was recorded at five minute intervals. […] The test compound was orally applied to the rat 30 minutes before the subcutaneous injected of formalin. Then, the inhibitory effect of the test compound on the nociceptive response induced by the formalin injection was calculated according to the following formula. To mention, for illustration, the inhibitory effect of carbamazepine, an agent to serve as a comparative example, if it is orally applied at 50 mg/kg, it inhibits the first-phase response by 52%, while it inhibits the second-phase response by 59%. Percent inhibition (%) -[([…]]×100 wherein […] is the response time (sec) of the test group which received formalin and the test compound, while PRcontol is the response time of the control group which received formalin alone.

Data set [4] relates to Crj:CD(SD) IGS female rats. The experiment in a line: Toxicological study, 14-day oral gavage. The following applies: 5 or 10 mg/kg/day orally once daily for 14 days.
Data set [5] deals with response threshold to a mechanical stimulus. Put plainly: Rat model made by loosely constricting the sciatic nerve (Bennett), von Frey threshold. In kind it is in vivo. The conditions noted are these: constriction, 1 hour after dosing. Here is the method: (“Pain,” 33:87, 1988). Specifically, the rat was anesthetized with i.p. injection of pentobarbital sodium at 40 mg/kg; the overlying skin was cut open; and the left biceps femoris muscle was bluntly separated. The sciatic nerve was isolated from surrounding tissues; it was gently constricted at four sites about 1 mm apart from each other by the use of surgical gut sutures (4-0); the operated part was closed; and the rat was returned to its cage for further feeding. For the rat belonging to the sham-surgery group, the same operation was performed except that the sciatic nerve was left untouched. Two weeks after the surgery, the response threshold to a mechanical stimulus consisting of touch with a von Frey filament was determined. The test proceeded as follows: the test compound dissolved or suspended in a solvent (0.5% aqueous solution of hydroxypropylmethyl cellulose) was orally applied to the rat having the sciatic nerve constricted; one hour later, von Frey hairs were applied against the foot pad (spots ranging from heel to the mid-point of foot) one after another in an ascending order of their stiffness; if the rat raises its foot when a certain von Frey hair was applied, the stimulus intensity of that hair was taken as the response threshold (maximum stimulus intensity being 28.84g).

In data set [6] the test system is transient sodium current in neuroblastoma cells. Put plainly: Voltage-clamp, transient sodium current. The conditions noted are these: at 53 μM.
Experimental: This experiment was undertaken by the method disclosed by Verdonck et al., Eur. J. Pharmacol., 203:371, 1991. Neuroblastoma cells were used. Isolated cells were strewn over a recording chamber filled with perfusion fluid; the membrane currents are recorded in a whole cell configuration by the voltage-clamp method based on the use of a glass microcapillary. Current components due to ions other than sodium ion were eliminated as follows. The potassium current was removed by cesium ion introduced in the capillary, and the calcium current was removed by cobalt ion added to the perfusion fluid. Measurement of the transient sodium current of the cells was achieved by applying depolarizing pulses at appropriate intervals to the cells clamped at holding potential, and by observing a transient inward current elicited therewith.
The mark [7] stands for this setting: 10 min, first 10 minutes, read-out: Response inhibition, 1st phase.
Where [8] appears, read: 0.75 h, 10 to 45 minutes, read-out: Response inhibition, 2nd phase.

Counter-ions that a name gives are not always drawn. Like-named read-outs stand apart in the source and are kept apart here. Marks after values point to notes of the source that are not given here.

The term IC50 denotes the concentration that inhibits the measured activity by half. A lower IC50 goes with higher potency. Regarding `Cc1cccc(C)c1OCC(C)N` (centres unmarked) [mexiletine, reference compound], in data set [1], the IC50 is 17000 nM.
As a reminder, the melting point is the temperature, or range, at which the solid turns liquid. In the case of `CC(C)Oc1ccc(N(C)CCC2(O)CCN(CCc3ccccc3)CC2)cc1.Cl.Cl` [Example 50, 4-[2-[N-methyl-N-(4-isopropoxyphenyl)-amino]ethyl]-1-(2-phenylethyl)piperidin-4-ol dihydrochloride], the melting point was in the range of 189.7 to 192.6 °C. The concentration for half-maximal inhibition (IC50) in data set [2] stood at 1510 nM. Moreover, the inhibition in vivo at 10 mg/kg in data set [3] (setting [7]) came out at 44%. Also, the inhibition in vivo at 10 mg/kg in data set [3] (setting [8]) was determined as 64%. In data set [1], this molecule displayed an IC50 of 300 nM.
`CC(C)Oc1ccc(N(C)CC2(O)CCN(CCc3ccc(C#N)cc3)CC2)cc1.Cl.Cl` [Example 96, 1-[2-(4-cyanophenyl)ethyl]-4-[N-methyl-N-(4-isopropoxyphenyl)aminomethyl]piperidin-4-ol dihydrochloride] yielded a melting point of 202.8 to 203.4 °C. For the same molecule, the inhibition in vivo at 10 mg/kg in data set [3] (setting [7]) came out at 74%. The inhibition in vivo at 10 mg/kg in data set [3] (setting [8]) turned out to be 69%.
`CC(C)Oc1ccc(N(C)CCC2(O)CCN(CCc3ccc(F)cc3)CC2)cc1.Cl.Cl` [Example 55, 1-[2-(4-fluorophenyl)ethyl]-4-[2-[N-methyl-N-(4-isopropoxyphenyl)amino]ethyl]piperidin-4-ol dihydrochloride]: the melting point is 252 °C (dec.). The same molecule yielded an IC50 in data set [2] of 1340 nM. Moreover, the inhibition in vivo at 10 mg/kg in data set [3] (setting [7]) was 30%. Further, in data set [3] (setting [8]), the inhibition in vivo at 10 mg/kg was 55%. In data set [1], this molecule registered an IC50 of 280 nM.
`CCOc1ccc(N(C)CCC2(O)CCN(CCc3ccc(C#N)cc3)CC2)cc1.Cl.Cl` [Example 90, 1-[2-(4-cyanophenyl)ethyl]-4-[2-[N-(4-ethoxyphenyl)-N-methylamino]ethyl]piperidin-4-ol dihydrochloride] gave a melting point of 214 to 215.2 °C. In addition, in data set [3] (setting [7]), the inhibition in vivo at 10 mg/kg was determined as 55%. Besides, the inhibition in vivo at 10 mg/kg in data set [3] (setting [8]) amounted to 65%.
Turning to `CC(C)Oc1ccc(N(C)CCC2(O)CCN(CCc3ccc(Cl)cc3)CC2)cc1` [Example 60, 1-[2-(4-chlorophenyl)ethyl]-4-[2-[N-methyl-N-(4-isopropoxyphenyl)amino]ethyl]piperidin-4-ol dihydrochloride], the inhibition in vivo at 10 mg/kg in data set [3] (setting [7]) amounted to 61%; in data set [3] (setting [8]) it was 92%.
The molecule `CC(C)Oc1ccc(N(C)CCC2(O)CCN(CCc3ccoc3)CC2)cc1.Cl.Cl` [Example 84, 1-[2-(3-furyl)ethyl]-4-[2-[N-methyl-N-(4-isopropoxyphenyl)amino]ethyl]piperidin-4-ol dihydrochloride] displayed a melting point of 202.6 to 203.9 °C. Moreover, the inhibition in vivo at 10 mg/kg in data set [3] (setting [7]) was 23%. In data set [3] (setting [8]), the inhibition in vivo at 10 mg/kg amounted to 49%.
Take `CC(C)Oc1ccc(N(C)CCC2(O)CCN(CCc3cccc(F)c3)CC2)cc1` [Example 58, 1-[2-(3-fluorophenyl)ethyl]-4-[2-[N-methyl-N-(4-isopropoxyphenyl)amino]ethyl]piperidin-4-ol dihydrochloride]: the inhibition in vivo at 10 mg/kg stood at 29% in data set [3] (setting [7]) and 56% in data set [3] (setting [8]).
For `CC(C)Oc1ccc(NCCC2(O)CCN(CCc3ccc(C#N)cc3)CC2)cc1.Cl.Cl`, the melting point is 197.3 °C (dec.).
Take `CC(C)Oc1ccc(N(C)CCC2(O)CCN(CCc3ccc(C#N)cc3)CC2)cc1.Cl.Cl` [Example 51, 1-[2-(4-cyanophenyl)ethyl]-4-[2-[N-methyl-N-(4-isopropoxyphenyl)amino]ethyl]piperidin-4-ol dihydrochloride]: in data set [4], the Body weight entry is recorded as “no loss in the weight”. Moreover, the General conditions result in data set [4] is “no notable abnormalities in general conditions”. In data set [4], the Histopathological examination entry was “no abnormal findings were obtained”. Moreover, the “Survival during treatment period” value in data set [4] is “All the rats survived”. Besides, the “Mean threshold, normal foot (right)” value turned out to be 16.43 g in data set [5] (2.5 mg/kg oral), 16.43 g in data set [5] (5 mg/kg oral) and 16.85 g in data set [5] (10 mg/kg oral). In addition, the “Mean threshold, test foot (left)” value is 8.33 g in data set [5] (2.5 mg/kg oral), 12.63* g in data set [5] (5 mg/kg oral) and 15.58** g in data set [5] (10 mg/kg oral). In addition, the IC50 was found to be 1560 nM in data set [2] and 610 nM in data set [1]. The “Decrease of the peak value of the transient inward current” value in data set [6] is 18%. The inhibition in vivo at 10 mg/kg in data set [3] (setting [7]) was 46%; in data set [3] (setting [8]) it was 67%.
Take `CC(C)Oc1ccc(N(C)CCC2(O)CCN(CCc3ccc([N+](=O)[O-])cc3)CC2)cc1` [Example 56, 4-[2-[N-methyl-N-(4-isopropoxyphenyl)amino]ethyl]-1-[2-(4-nitrophenyl)ethyl]piperidin-4-ol dihydrochloride]: the figures for the inhibition in vivo at 10 mg/kg in data set [3] (setting [7]) and in data set [3] (setting [8]) were 40% and 70%, respectively.
`NC(=O)N1c2ccccc2C=Cc2ccccc21` [carbamazepine, reference compound]: in data set [5] (50 mg/kg oral), the “Mean threshold, normal foot (right)” value is recorded as 19.85 g and the “Mean threshold, test foot (left)” value is reported as 8.97 g. Also, in data set [5] (100 mg/kg oral), the “Mean threshold, normal foot (right)” value came to 27.13 g and the “Mean threshold, test foot (left)” value is 19.43** g. In addition, in data set [3] (orally applied at 50 mg/kg), the “Inhibition of the first-phase response” value is 52% and the “Inhibition of the second-phase response” value worked out at 59%. In addition, the IC50 in data set [1] is ≥ 300000 nM.
Turning to `CC(C)Oc1ccc(N(C)CCC2(O)CCN(CCc3ccccc3C(F)(F)F)CC2)cc1` [Example 65, 4-[2-[N-methyl-N-(4-isopropoxyphenyl)amino]ethyl]-1-[2-[2-(trifluoromethyl)phenyl]ethyl]piperidin-4-ol dihydrochloride], the inhibition in vivo at 10 mg/kg came out at 93% in data set [3] (setting [7]) and 96% in data set [3] (setting [8]).
Molecule `O=C1NC(=O)C(c2ccccc2)(c2ccccc2)N1` [phenytoin, reference compound] came in with an IC50 in data set [1] of 51000 nM. This counts as double-digit micromolar.
Consider `CC(C)Oc1ccc(N(C)CCC2(O)CCN(CCc3cccs3)CC2)cc1.Cl.Cl` [Example 86, 4-[2-[N-methyl-N-(4-isopropoxyphenyl)amino]ethyl]-1-[2-(2-thienyl)ethyl]piperidin-4-ol dihydrochloride], for which the melting point was 203 to 204.5 °C. Further, inhibition in data set [2] was half-maximal at 1650 nM (IC50). The inhibition in vivo at 10 mg/kg in data set [3] (setting [7]) is 19%. In data set [3] (setting [8]), the inhibition in vivo at 10 mg/kg was 62%.
